Measured values as given in the NIST ThermoML archive (doi:10.1016/j.jct.2014.02.016).
Numbers after ± are expanded uncertainties.

Assay: refractive index (other wavelength) (dimensionless)
Details: 100 kPa, Liquid, Wavelength=632.8 nm, Angle minimization by sell rotation

COC(=O)OC [dimethyl carbonate]
Details | refractive index
293.16 K | 1.3678 ± 0.0003
294.29 K | 1.3673 ± 0.0003
295.28 K | 1.3669 ± 0.0003
296.28 K | 1.3663 ± 0.0003
297.28 K | 1.3659 ± 0.0003
298.3 K | 1.3654 ± 0.0003
300.3 K | 1.3644 ± 0.0003
302.3 K | 1.3635 ± 0.0003
303.4 K | 1.363 ± 0.0003

CCCCCCCCCCCCC [tridecane]
Details | refractive index
294.14 K | 1.4241 ± 0.0003
295.15 K | 1.4236 ± 0.0003
296.18 K | 1.4232 ± 0.0003
297.23 K | 1.4227 ± 0.0003
299.35 K | 1.4218 ± 0.0003
300.44 K | 1.4213 ± 0.0003
302.44 K | 1.4204 ± 0.0003
303.67 K | 1.4199 ± 0.0003
304.45 K | 1.4196 ± 0.0003

CCCCCCCCCCC [undecane]
Details | refractive index
293.4 K | 1.4162 ± 0.0003
294.3 K | 1.4157 ± 0.0003
295.27 K | 1.4152 ± 0.0003
296.26 K | 1.4148 ± 0.0003
297.25 K | 1.4144 ± 0.0003
298.27 K | 1.4139 ± 0.0003
299.34 K | 1.4134 ± 0.0003
300.31 K | 1.413 ± 0.0003
301.27 K | 1.4126 ± 0.0003
